The results in this text go back to patent US9180115B2, “Cyclohexylamines” (Asana Biosciences, LLC, priority 2011, dated 2015).

This assay has as its system sodium channel response in hTRPV1-N1E115 cells. Kind of assay: FLIPR membrane potential assay of sodium channel response in hTRPV1-N1E115 cells with or without heat (47° C.) activation. As to conditions: for hTRPV1-N1E Nav 0.1 mM (% inhibition) 25° C. / hTRPV1-N1E Nav 1 mM (% inhibition) 25° C.: 25° C. (no heat activation); for hTRPV1-N1E Nav 0.1 mM (% inhibition) 47° C. / hTRPV1-N1E Nav 1 mM (% inhibition) 47° C.: 47° C. (heat activated); for IC50: read-out: hTRPV1-N1E IC50 (μM) 47° C. Type of assay: cell-based. From the text: In one embodiment, a modified FLIPR® (Fluorometric Imaging Plate Reader) based assay system was developed which is capable of discriminating between non-specific versus hTRPV1-mediated entry of test compounds. Advantageously, the assay system utilizes heat activated opening of hTRPV1 channels followed by an assessment of internal sodium channel block. The assay allows a permanently charged compound to selectively enter through opened hTRPV1 channels and that compound's potency in inhibiting sodium channels from the cytoplasm side of the same cell can be assessed and quantified.
The test compounds are diluted in the Assay Buffer and added to each well of a specific 384-well ‘compound plate’, which serves as a source plate for compound addition using the FLIPR® platform. The concentration of compounds in the compound-plate was adjusted to achieve the desired final concentration when added to the cells in the ‘cell-plate’. After completion of the dye incubation period, the dye loaded cell-plates and the compound source plates are inserted into the FLIPR® Tetra device with a 384 FLIPR® tip box (Molecular Devices, Inc.) according to manufacturer's instructions. The compounds are robotically added to the dye loaded cell-plates using software integral to the FLIPR® Tetra instrument.
Immediately following compound addition, hTRPV1 is activated, in one of the duplicate cell plates, by heating. Specifically, entire multi-well plate containing the compound-cells mixture is incubated at 47° C. for 10 minutes, after which they are returned to room temperature (about 25° C.) for a further 30 minutes. Heat activation of hTRPV1 was omitted from the replicate cell plate which was simply maintained at room temperature for the entire 40 minutes.
A membrane potential response is elicited in the dye- and compound-loaded cells by the addition of veratridine which is a known sodium channel ‘agonist’. As illustrated in an example herein, an agonist plate containing veratridine (Sigma) is prepared in advance and is inserted into suitable devices such as, e.g., the FLIPR® TETRA device for a “2nd addition” as instructed by the manufacturer. The concentration of veratridine in the ‘agonist plate’ was adjusted to achieve a final concentration of 100 μM when added to the cells in the cell-plate. Final concentrations of veratridine greater or lesser than 100 μM may also be used but the signal measured by the FLIPR® TETRA device or another suitable device may vary accordingly.
The exposure of the cells in the cell-plate to veratridine induces sodium channels in the cells to open and the resulting ion flux produces a membrane potential depolarization that is detected as a fluorescence signal by the FLIPR® Tetra Device. The activity of test compounds is determined by their ability to attenuate the veratridine-induced fluorescence signal, the most promising compounds are those that show an enhanced activity in the heat-activated cell plate over the non-heat-activated cell plate. This differential activity reflects enhanced compound uptake via the heat activated and open hTRPV1 channels and rests on the fact that sodium channel block requires test compounds to act from the cytoplasmic side of the cell membrane.
In vitro assays were developed for assessing the inhibition of sodium channel response with compounds following stimulation by heat (47° C.) in cells expressing hTRPV1.
(v) Membrane potential Assay to Assess Sodium Channel Function in hTRPV1-Expressing Cells • Cells were plated at 5000 per 50 μL [DMEM+10% FBS+300 μg/mL H\hygromycin] per well, in a 384 clear bottom poly-D-lysine coated plate and incubated at 37° C. and 5% CO2 for 48 hours. On the day of the assay, media were discarded gently and 30 μL of the dye [FMP blue dye was prepared in assay buffer] per well was added and dye-loading was allowed to proceed for 20 min at room temperature. […]

As usually defined, the IC50 is the midpoint of a concentration-inhibition curve.

As to `CCc1ccccc1C(=O)OC(C)C[N+](C)(C)C1CCCCC1.[I-]` (stereo not shown) [Example 44, N-[2-((2-Ethylbenzoyl)oxy)propyl]-N,N-dimethylcyclo-hexanaminium iodide], the “hTRPV1-N1E Nav 0.1 mM (% inhibition) 25° C.” value was 56 (N = 4) %, the “hTRPV1-N1E Nav 0.1 mM (% inhibition) 47° C.” value is 89 (N = 4) %, the “hTRPV1-N1E Nav 1 mM (% inhibition) 25° C.” value was 81 (N = 4) % and the “hTRPV1-N1E Nav 1 mM (% inhibition) 47° C.” value is on record as 96 (N = 4) %.
For the molecule `CC(C[N+](C)(C)C1CCCCC1)OC(=O)c1cccc(C(F)(F)F)c1.[I-]` (stereo not shown) [Example 16, N,N-Dimethyl-N-[2-((3-(trifluoromethyl)benzoyl)oxy)propyl] cyclohexanaminium iodide], the “hTRPV1-N1E Nav 0.1 mM (% inhibition) 25° C.” value was 31 (N = 4) %, the “hTRPV1-N1E Nav 0.1 mM (% inhibition) 47° C.” value is 60 (N = 4) %, the “hTRPV1-N1E Nav 1 mM (% inhibition) 25° C.” value is 50 (N = 4) % and the “hTRPV1-N1E Nav 1 mM (% inhibition) 47° C.” value is listed as 83 (N = 4) %. The 50% inhibitory concentration (IC50) (47° C.) fell in the range of 100 to 1000 µM.
For the molecule `Cc1ccccc1C(=O)OC(C)C[N+](C)(C)C1CCCCC1.[I-]` (stereo not shown) [Example 11, N,N-Dimethyl-N-[2-((2-methylbenzoyl)oxy)propyl] cyclohexanaminium iodide], the “hTRPV1-N1E Nav 0.1 mM (% inhibition) 25° C.” value was 16 (N = 4) % and the “hTRPV1-N1E Nav 0.1 mM (% inhibition) 47° C.” value is 40 (N = 4) %. The IC50 (47° C.) fell in the range of 100 to 1000 µM.
As for `CC(C[N+](C)(C)C1CCCCC1)OC(=O)c1ccccc1[N+](=O)[O-].[I-]` (stereo not shown) [Example 18, N,N-Dimethyl-N-[2-((2-nitrobenzoyl)oxy)propyl] cyclohexanaminium iodide], the “hTRPV1-N1E Nav 0.1 mM (% inhibition) 25° C.” value is given as 3 (N = 4) %, the “hTRPV1-N1E Nav 0.1 mM (% inhibition) 47° C.” value was 41 (N = 4) %, the “hTRPV1-N1E Nav 1 mM (% inhibition) 25° C.” value is given as 28 (N = 4) % and the “hTRPV1-N1E Nav 1 mM (% inhibition) 47° C.” value was 66 (N = 4) %.
Regarding `CC(C)(C)c1ccc(C(=O)OCC[N+](C)(C)C2CCCCC2)cc1.[I-]` [Example 43, N-[2-((4-(tert-butyl)benzoyl)oxy)ethyl]-N,N-dimethylcyclo-hexanaminium iodide], the “hTRPV1-N1E Nav 0.1 mM (% inhibition) 25° C.” value is listed as 13 (N = 4) % and the “hTRPV1-N1E Nav 0.1 mM (% inhibition) 47° C.” value is given as 78 (N = 4) %. Under “47° C.”, the concentration for half-maximal inhibition (IC50) is 10 to 100 µM.
Consider `CCc1ccc(C(=O)OC(C)C[N+](C)(C)C2CCCCC2)cc1.[I-]` (stereo not shown) [Example 20, N-[2-((4-Ethylbenzoyl)oxy)propyl]-N,N-dimethyl-cyclohexanaminium iodide], for which the “hTRPV1-N1E Nav 0.1 mM (% inhibition) 25° C.” value is reported as 14 (N = 4) %, the “hTRPV1-N1E Nav 0.1 mM (% inhibition) 47° C.” value is recorded as 77 (N = 4) %, the “hTRPV1-N1E Nav 1 mM (% inhibition) 25° C.” value is recorded as 46 (N = 4) % and the “hTRPV1-N1E Nav 1 mM (% inhibition) 47° C.” value is listed as 95 (N = 4) %. For the same molecule, the IC50 (47° C.) is 10 to 100 µM.
For `CC(C[N+](C)(C)C1CCCCC1)OC(=O)c1c(Cl)cccc1Cl.[I-]` (stereo not shown) [Example 27, N-[2-((2,6-Dichlorobenzoyl)oxy)propyl]-N,N-dimethylcyclo-hexanaminium iodide] the same measures were 23 (N = 4) %, 73 (N = 4) %, 74 (N = 4) %, 85 (N = 4) % and 100 to 1000 µM.
For `Cc1cccc(C)c1C(=O)O[C@@H](C)C[N+](C)(C)C1CCCCC1.[I-]` [Example 23, (S)-N-[2-((2,6-Dimethylbenzoyl)oxy)propyl]-N,N-dimethyl-cyclohexanaminium iodide], the “hTRPV1-N1E Nav 0.1 mM (% inhibition) 25° C.” value is on record as 38 (N = 4) % and the “hTRPV1-N1E Nav 1 mM (% inhibition) 25° C.” value is reported as 76 (N = 4) %. For the same molecule, where the note is “47° C.”, the IC50 was in the range of 10 to 100 µM.
Consider `CC(C[N+](C)(C)C1CCCCC1)OC(=O)c1cccc(Cl)c1Cl.[I-]` (stereo not shown) [Example 29, N-[2-((2,3-Dichlorobenzoyl)oxy)propyl]-N,N-dimethyl-cyclohexanaminium iodide], for which the “hTRPV1-N1E Nav 0.1 mM (% inhibition) 25° C.” value is listed as 36 (N = 4) %, the “hTRPV1-N1E Nav 0.1 mM (% inhibition) 47° C.” value is on record as 52 (N = 4) %, the “hTRPV1-N1E Nav 1 mM (% inhibition) 25° C.” value is on record as 50 (N = 4) % and the “hTRPV1-N1E Nav 1 mM (% inhibition) 47° C.” value is recorded as 61 (N = 4) %. The half-inhibitory concentration (IC50) (47° C.) is 10 to 100 µM.
Take `CC[N+](CC)(CC(C)OC(=O)c1ccccc1)C1CCCCC1.[Cl-]` (stereo not shown) [Example 3, N-[2-(benzoyloxy)propyl]-N,N-diethylcyclohexanaminium chloride]: for the setting “0.5 mM, 25° C.”, the “hTRPV1-N1E Nav (% inhibition) 25° C., 0.5 mM” value is 14 (N = 2, %. Moreover, the “hTRPV1-N1E Nav (% inhibition) 47° C., 0.5 mM” value (0.5 mM, 47° C.) was 19 (N = 2, %. Besides, the “hTRPV1-N1E Nav (% inhibition) 25° C., 5 mM” value (5 mM, 25° C.) was 52 (N = 2, %. For the same molecule, the “hTRPV1-N1E Nav (% inhibition) 47° C., 5 mM” value (5 mM, 47° C.) was 67 (N = 2, %.
In the case of `COc1cccc(OC)c1C(=O)OC(C)C[N+](C)(C)C1CCCCC1.[I-]` (stereo not shown) [Example 7, N-[2-((2,6-Dimethoxybenzoyl)oxy)propyl]-N,N-dimethyl-cyclohexanaminium iodide], the “hTRPV1-N1E Nav 0.1 mM (% inhibition) 25° C.” value is on record as 1 (N = 4) %, the “hTRPV1-N1E Nav 0.1 mM (% inhibition) 47° C.” value is reported as 28 (N = 4) %, the “hTRPV1-N1E Nav 1 mM (% inhibition) 25° C.” value is 0 (N = 4) % and the “hTRPV1-N1E Nav 1 mM (% inhibition) 47° C.” value is reported as 70 (N = 4) %.
Consider `Cc1ccc(C(=O)OC(C)C[N+](C)(C)C2CCCCC2)c(C)c1.[I-]` (stereo not shown) [Example 45, N-[2-((2,4-Dimethylbenzoyl)oxy)propyl]-N,N-dimethylcyclo-hexanaminium iodide], for which the “hTRPV1-N1E Nav 0.1 mM (% inhibition) 25° C.” value is listed as 4 (N = 4) %, the “hTRPV1-N1E Nav 0.1 mM (% inhibition) 47° C.” value is 72 (N = 4) %, the “hTRPV1-N1E Nav 1 mM (% inhibition) 25° C.” value is recorded as 46 (N = 4) % and the “hTRPV1-N1E Nav 1 mM (% inhibition) 47° C.” value is 83 (N = 4) %. Further, the IC50 (47° C.) is 10 to 100 µM.
Regarding `CC(C[N+](C)(C)C1CCCCC1)OC(=O)c1ccccc1F.[I-]` (stereo not shown) [Example 8, N-[2-((2-Fluorobenzoyl)oxy)propyl]-N,N-dimethyl-cyclohexanaminium iodide], the “hTRPV1-N1E Nav 0.1 mM (% inhibition) 25° C.” value is on record as 14 (N = 4) %, the “hTRPV1-N1E Nav 0.1 mM (% inhibition) 47° C.” value is reported as 38 (N = 4) %, the “hTRPV1-N1E Nav 1 mM (% inhibition) 25° C.” value is given as 22 (N = 4) % and the “hTRPV1-N1E Nav 1 mM (% inhibition) 47° C.” value was 53 (N = 4) %.
`CC(C[N+](C)(C)C1CCCCC1)OC(=O)c1ccc(C(C)C)cc1.[I-]` (stereo not shown) [Example 4, N-[2-((4-isopropylbenzoyl)oxy)propyl]-N,N-dimethylcyclohexanaminium iodide]: the “hTRPV1-N1E Nav 0.1 mM (% inhibition) 25° C.” value was 24 (N = 4) % and the “hTRPV1-N1E Nav 0.1 mM (% inhibition) 47° C.” value is reported as 86 (N = 4) %. Further, the IC50 (47° C.) was in the range of 10 to 100 µM.
As for `CC(C[N+](C)(C)C1CCCCC1)OC(=O)c1ccccc1Cl.[I-]` (stereo not shown) [Example 9, N-[2-((2-Chlorobenzoyl)oxy)propyl]-N,N-dimethyl-cyclohexanaminium iodide], the “hTRPV1-N1E Nav 0.1 mM (% inhibition) 25° C.” value was 16 (N = 4) % and the “hTRPV1-N1E Nav 0.1 mM (% inhibition) 47° C.” value was 67 (N = 4) %.
Turning to `Cc1cc(C)c(C(=O)O[C@H](C)C[N+](C)(C)C2CCCCC2)c(C)c1.[I-]` [Example 25, (R)-N,N-Dimethyl-N-[2-((2,4,6-trimethylbenzoyl)oxy)propyl] cyclohexanaminium iodide], the “hTRPV1-N1E Nav 0.1 mM (% inhibition) 25° C.” value is recorded as 48 (N = 4) % and the “hTRPV1-N1E Nav 1 mM (% inhibition) 25° C.” value was 89 (N = 4) %. Further, the IC50 (47° C.) lay in the range of 10 to 100 µM.
Consider `Cc1cc(C)c(C(=O)OCC[N+](C)(C)C2CCCCC2)c(C)c1.[I-]` [Example 41, N-[2-((2,4,6-Trimethylbenzoyl)oxy)ethyl]-N,N-dimethylcyclo-hexanaminium iodide], for which the “hTRPV1-N1E Nav 0.1 mM (% inhibition) 25° C.” value was 13 (N = 4) %, the “hTRPV1-N1E Nav 0.1 mM (% inhibition) 47° C.” value is reported as 66 (N = 4) %, the “hTRPV1-N1E Nav 1 mM (% inhibition) 25° C.” value is 22 (N = 4) % and the “hTRPV1-N1E Nav 1 mM (% inhibition) 47° C.” value is 89 (N = 4) %. Further, under “47° C.”, the IC50 was in the range of 10 to 100 µM.
